Source: patent US20070054848A1, “Composition and method for nerve regeneration” (priority 2003, published 2007)

Assays:
[1] = biological target: T1, Recombinant human p75-Fc chimera (Homo sapiens, UniProt P08138); assay: Co-precipitation of recombinant p75 and gangliosides; assay type: binding; conditions: precipitation with protein A sepharose, Western blot
T1 construct: Recombinant p75 extracellular domain fused to Fc purified from Sf21 cells; purchased Genzyme-Techne; host or cells: Sf21 cells
T1 sequence (P08138 29-250 limits assumed): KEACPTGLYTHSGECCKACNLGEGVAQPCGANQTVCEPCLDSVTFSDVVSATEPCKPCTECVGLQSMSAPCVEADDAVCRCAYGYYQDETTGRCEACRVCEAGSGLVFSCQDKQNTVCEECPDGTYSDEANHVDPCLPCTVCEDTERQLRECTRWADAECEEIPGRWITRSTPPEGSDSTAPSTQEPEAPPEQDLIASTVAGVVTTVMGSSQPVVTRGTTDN
Description: Recombinant human p75-Fc chimera (1 μg; Genzyme-Techne) and 1 μg of purified ganglioside GT1b (>98% purity, Seikagaku Co.) were incubated in 200 μl 0.025% Tween20/PBS for 2 h, and p75 was precipitated using proteinA sepharose (Amersham Pharmacia Biotech). The resultant precipitates were electrophoretically transferred to polyvinylidene difluoride membranes after SDS-PAGE with 7% gels and were immunoblotted with anti GT1b antibody (IgM, Seikagaku Co.) or anti p75 antibody.

[2] = biological target: T2, p75 (Homo sapiens, UniProt P08138); assay: Co-precipitation of p75 and Rho GDI with purified recombinant proteins; assay type: binding; conditions: p75 precipitated from transfected 293T cells; purified recombinant proteins
T2 construct: host or cells: 293T cells (p75)
T2 sequence (P08138 29-427): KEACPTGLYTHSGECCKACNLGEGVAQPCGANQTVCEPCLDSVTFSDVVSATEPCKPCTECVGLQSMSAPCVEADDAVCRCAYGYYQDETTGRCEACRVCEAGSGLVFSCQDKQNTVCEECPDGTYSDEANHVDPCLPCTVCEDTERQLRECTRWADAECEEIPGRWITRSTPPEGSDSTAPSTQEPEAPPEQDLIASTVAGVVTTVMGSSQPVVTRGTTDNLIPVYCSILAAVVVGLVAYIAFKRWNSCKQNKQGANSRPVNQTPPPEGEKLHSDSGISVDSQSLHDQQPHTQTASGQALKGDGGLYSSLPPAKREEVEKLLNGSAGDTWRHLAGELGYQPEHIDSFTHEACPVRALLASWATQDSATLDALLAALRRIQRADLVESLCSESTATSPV

[3] = test system: cerebellar neurons; assay: Neurite outgrowth assay, post-natal cerebellar neurons; assay type: cell-based, mice; conditions: cerebellar neurons transfected with myc-tagged Rho GDI
[4] = test system: N1E-115 cells; assay: Morphological analysis of N1E-115 cells; assay type: cell-based; conditions: for neurite formation / population with long neurites: Y-27632 10 μM for 30 minutes, constructs 48 hours after transfection
Description: N1E-115 cells were transfected with GFP, GFP-full-p21 or GFP-ΔNLS-p21, and cultured in serum-starved condition for 5 hours. Then, the medium was replaced with DMEM containing 10% fetal bovine serum. The cells were fixed at 48 hours after transfection. The morphology of the cells was categorized into 3 groups; neurite positive cells, round cells and the other cells. The cells with longer neurites than their soma were defined as neurite positive cells. The other cells had various features including microspikes, ruffles and a flattened appearance.

[5] = biological target: catalytic domain of Rho-kinase (GST-CAT) (Bos taurus, UniProt Q28021); assay: In vitro binding assay of p21 and Rho-kinase (GST-CAT); conditions: co-incubated at the indicated concentrations
[6] = biological target: T3, Rho-kinase (Bos taurus, UniProt Q28021); assay: Rho-kinase kinase assay with lysates of transfected 293T cells; assay type: cell-based; conditions: 293T cells transfected with myc-Rho-kinase; Y-27632 10 μM for 30 minutes
Description: Cells were lysed with lysis buffer (50 mM Tris-HCl (pH 7.5), 150 mM NaCl, 10% glycerol, 1% Nonidet-P40 and protease inhibitor cocktail). The kinase assay was carried out using the lysates.

[7] = test system: cerebellar granule neurons from P7 rats; assay: Neurite outgrowth assay, cerebellar neurons; assay type: cell-based, rat; conditions: cerebellar granule neurons; data not shown
[8] = test system: N1E-115 cells; assay: Growth and differentiation of N1E-115 cells; assay type: cell-based; conditions: for proliferation of N1E-115 cells: until 48 hours after transfection
Description: Cells were seeded in 6-cm dishes, transfected, and were counted 1 and 2 days after transfection. The relative increases in the number of the cells are shown. The values are means±SEM of 3 independent experiments. *, p<0.01 compared with full-p21 (Student's t-test). There is no significant difference between GFP and GFP-ΔNLS-p21 transfected cells. […] N1E-115 cells were treated with DMSO, or transfected with GFP-full-p21 or GFP-ΔNLS-p21, then were harvested at 1, 2, 3 and 4 days. Arrowheads indicate hyperphosphorylated pRb, and the arrow indicates underphosphorylated pRb. […] Shown are photomicrographs of the cells transfected with each construct. […] N1E-115 cells exposed to Y-27632 (10 μM) for 30 minutes or expressing GFP, GFP-full-p21 or GFP-ΔNLS-p21 were categorized into 3 groups; the cells with long neurites (long neurite), cells with a round form (round), and cells with other forms (others). Data represent means±SEM of 3 independent experiments. *, p<0.05 compared with control. **, p<0.01 compared with control as well as full-p21 (Student's t-test).
(§1) NIH3T3 cells, N1E-115 cells and 293T cells were maintained in DMEM containing 10% fetal bovine serum. Lipofectamine 2000 (Invitrogen) was used for transfection. For the stress fiber formation assay, NIH3T3 cells were cultured in serum-free medium for 16 hours after transfection. Stress fiber formation was evoked by incubating the cells with 10% serum for 10 minutes. Hippocampal neurons were prepared from 18-day-old Sprague-Dawley rats, as previously described (Neumann, H. et al., Science. 269:549-552, 1995). Briefly, hippocampi were dissected and the meninges removed. The trimmed tissue was dissociated by trituration. The dissociated cells were plated on dishes pre-coated with poly-L-lysine (Sigma), and cultured in DMEM containing 10% fetal bovine serum for 24 hours. Then, the medium was replaced with DMEM with B27 supplement (Invitrogen), and the cells were transfected with GFP or GFP-ΔNLS-p21. Neuronal morphology was estimated at 24 hours after the transfection.

[9] = biological target: T3, Rho-kinase; assay: Co-immunoprecipitation of p21 constructs and Rho-kinase in 293T cells; assay type: cell-based; conditions: anti-p21 antibody
Description: 293T cells were transfected with myc-Rho-kinase in combination with GFP-full-p21 or GFP-ΔNLS-p21. At 48 hours after transfection, the cells were lysed with 1 ml of lysis buffer (50 mM Tris-HCl (pH 7.5), 150 mM NaCl, 10% glycerol, 0.5% Nonidet-P40 including protease inhibitor cocktail tablets (Roche). The cell lysates were centrifuged at 13,000×g for 20 minutes, and the supernatant was collected. Immunoprecipitations were performed for 2 hours at 4° C. using an anti-p21 mouse monoclonal antibody (Santa Cruz Biotechnology) and 0.75 ml of the supernatant. The immunocomplexes were collected with protein G-Sepharose (Amersham Pharmacia Biotech) slurry (50% v/v), washed 4 times with lysis buffer, and subjected to SDS-PAGE. They were transferred to the polyvinylidene difluoride membranes and probed with the anti-myc rabbit polyclonal antibody (Santa Cruz Biotechnology). Interaction of endogenous proteins in N1E-115 cells was assessed in the same way using anti Rho-kinase antibody.

[10] = test system: NIH3T3 cells; assay: Stress fiber formation assay in NIH3T3 cells; assay type: cell-based; conditions: serum-starved 16 hours, 10% serum 10 minutes
Description: as §1

[11] = test system: hippocampal neurons; assay: Neurite outgrowth and branching of hippocampal neurons; assay type: cell-based; conditions: rat E18 hippocampal neurons, 24 hours after transfection
Description: as §1
Cultures of the hippocampal neurons from rat E18 embryos were used. […] Twenty-four hours after transfection, the cells were fixed and immunolabeled with β-tubulin III. The total neurite length per neuron, the axonal length, defined as the length of the longest neurite per neuron, the number of primary processes originating from the neuronal somata, and the number of branch points per neuron were determined (Neumann, H. et al., J. Neurosci. 22:854-862, 2002).

T3 sequence (Q28021 whole entry): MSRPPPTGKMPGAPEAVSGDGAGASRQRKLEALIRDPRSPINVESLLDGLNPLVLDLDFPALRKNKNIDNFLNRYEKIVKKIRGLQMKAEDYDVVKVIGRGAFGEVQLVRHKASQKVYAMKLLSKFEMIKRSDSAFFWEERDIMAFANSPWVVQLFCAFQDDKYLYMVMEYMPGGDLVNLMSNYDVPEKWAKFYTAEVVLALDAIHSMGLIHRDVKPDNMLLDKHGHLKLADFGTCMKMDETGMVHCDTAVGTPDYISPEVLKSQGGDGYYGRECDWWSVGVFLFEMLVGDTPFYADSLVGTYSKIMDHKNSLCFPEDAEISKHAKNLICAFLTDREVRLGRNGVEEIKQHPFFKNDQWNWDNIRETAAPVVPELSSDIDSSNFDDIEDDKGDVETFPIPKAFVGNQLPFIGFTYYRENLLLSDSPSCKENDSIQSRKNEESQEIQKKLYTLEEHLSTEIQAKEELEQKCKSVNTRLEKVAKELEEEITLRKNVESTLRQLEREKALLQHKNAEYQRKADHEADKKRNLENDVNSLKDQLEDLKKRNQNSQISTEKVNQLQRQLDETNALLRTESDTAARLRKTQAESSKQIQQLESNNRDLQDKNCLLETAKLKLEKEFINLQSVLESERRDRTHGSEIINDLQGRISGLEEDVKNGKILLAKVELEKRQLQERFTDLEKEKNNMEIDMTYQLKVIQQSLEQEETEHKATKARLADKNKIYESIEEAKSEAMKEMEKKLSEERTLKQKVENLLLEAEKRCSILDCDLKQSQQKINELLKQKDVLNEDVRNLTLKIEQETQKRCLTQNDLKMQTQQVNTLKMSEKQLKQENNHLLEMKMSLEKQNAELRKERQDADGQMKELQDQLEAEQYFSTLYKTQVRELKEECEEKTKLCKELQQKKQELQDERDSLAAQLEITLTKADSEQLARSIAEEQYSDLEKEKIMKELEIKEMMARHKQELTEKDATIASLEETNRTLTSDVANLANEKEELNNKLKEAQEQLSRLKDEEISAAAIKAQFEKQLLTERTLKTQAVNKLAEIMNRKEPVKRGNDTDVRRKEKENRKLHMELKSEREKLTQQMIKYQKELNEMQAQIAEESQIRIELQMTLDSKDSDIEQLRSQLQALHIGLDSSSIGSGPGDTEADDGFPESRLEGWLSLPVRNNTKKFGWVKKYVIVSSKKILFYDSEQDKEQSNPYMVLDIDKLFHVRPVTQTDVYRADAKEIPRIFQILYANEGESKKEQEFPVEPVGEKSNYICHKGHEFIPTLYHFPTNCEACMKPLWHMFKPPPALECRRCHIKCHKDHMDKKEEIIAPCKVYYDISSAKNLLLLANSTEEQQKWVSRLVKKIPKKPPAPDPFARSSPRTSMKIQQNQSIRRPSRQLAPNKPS
catalytic domain of Rho-kinase (GST-CAT), sequence (Q28021 6-553 limits assumed): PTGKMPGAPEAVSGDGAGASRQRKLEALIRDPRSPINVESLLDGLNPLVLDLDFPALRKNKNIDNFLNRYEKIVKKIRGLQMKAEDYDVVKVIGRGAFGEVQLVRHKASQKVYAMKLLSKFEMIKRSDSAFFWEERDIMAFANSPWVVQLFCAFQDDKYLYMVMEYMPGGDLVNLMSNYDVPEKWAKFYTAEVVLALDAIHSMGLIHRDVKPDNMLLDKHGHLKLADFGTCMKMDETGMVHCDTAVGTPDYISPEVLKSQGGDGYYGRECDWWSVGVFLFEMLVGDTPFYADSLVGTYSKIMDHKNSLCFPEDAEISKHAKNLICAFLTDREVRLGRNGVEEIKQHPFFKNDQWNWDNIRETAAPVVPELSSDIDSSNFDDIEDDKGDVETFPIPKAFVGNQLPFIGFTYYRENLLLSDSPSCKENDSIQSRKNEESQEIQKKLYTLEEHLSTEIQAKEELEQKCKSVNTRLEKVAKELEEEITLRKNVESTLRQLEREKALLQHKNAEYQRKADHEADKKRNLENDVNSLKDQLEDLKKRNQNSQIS

GT1b was tested, and the “association with recombinant p75 extracellular domain fused to Fc” value [1] was “binds to p75 in a manner that is SDS-resistant”.

For “Rho GDI: Rho GDP dissociation inhibitor; recombinant protein or myc-tagged Rho GDI plasmid over-expression”, the “direct physical interaction with p75” value [2] was “bound to p75” and the “effect of over-expression on inhibition of neurite outgrowth by MAG and the Nogo peptide” value [3] was “abolished these inhibitory effects”.

In the case of `C[C@@H](N)[C@H]1CC[C@H](C(=O)Nc2ccncc2)CC1` [Y-27632, reference compound], the “neurite formation / population with long neurites” value [4] is reported as “induced significant neurite formation”, the “interaction of p21 with Rho-kinase” value [5] is reported as “inhibited the interaction of p21 with Rho-kinase in a dose dependent manner” and the “Rho-kinase activity (compared to the original)” value [6] is reported as 51.9%.

For “RhoA: bacterially produced RhoA, GDP-bound, GTP-bound or nucleotide-depleted”, the “direct physical interaction with p75” value [2] was “no interaction between them in any nucleotide state”.

For `Cn1c2ccccc2c2c3c(c4c5ccccc5n(CCC#N)c4c21)CNC3=O` [G06976], the “neurite outgrowth response to MAG-Fc or Nogo peptide with another PKC inhibitor” value [7] was “Same results were obtained”.

For “full-length p21: pEGFP-full-p21 (aa 1-164), mammalian expression vector for GFP fused protein”, the “proliferation of N1E-115 cells” value [8] was “stopped proliferation”, the “co-immunoprecipitation of myc-tagged Rho-kinase” value [9] was “only a faint signal could be detected” and the “actin stress fiber formation after the addition of serum” value [10] was “Extensive actin stress fibers were observed”. The “neurite formation / population with long neurites” value [4] was “no increase in the cell population that had long neurites” and the “Rho-kinase activity (compared to the original)” value [6] was “no significant effect”.

For “AKRRRLSSLRA [S6 kinase substrate peptide]”, the “interaction of p21 with Rho-kinase” value [5] was “inhibited the interaction of p21 with Rho-kinase in a dose dependent manner”.

In the case of “ΔNLS-p21: p21 with loss of nuclear localization signal (aa 1-140), expressed as GFP fused protein”, the “number of primary processes” value [11] is reported as “no change in the number of primary processes”, the “number of branch points per neuron” value ([11]; control 1.3) is reported as 2.6 and the “axonal length (length of the longest neurite per neuron)” value ([11]; control 66.3) is reported as 162.9 μm. For the same molecule, the “total neurite length per neuron” value ([11]; control 135.9) was 307.2 μm, the differentiation inducing activity ([8]; cyclin D3 and pRb Western blot) was “has no differentiation inducing activity” and the “proliferation of N1E-115 cells” value [8] was “proliferated until 48 hours after transfection”. The “co-immunoprecipitation of myc-tagged Rho-kinase” value [9] was “efficiently precipitated myc-tagged Rho-kinase”, the “actin stress fiber formation after the addition of serum” value [10] was “little stress fiber formation” and the “cells that extended long neurites” value ([4]; 48 hours after transfection) was “more than 45%”. The “increase of cells with long neurites compared to the control” value ([4]; 48 hours after transfection) was 3.1 fold and the “Rho-kinase activity (compared to the original)” value [6] was 48.1%.

In the case of GD1a, the “association with recombinant p75 extracellular domain fused to Fc” value [1] is reported as “did not see any interaction”.
